# From patent publication US20110077198A1, “COMPOSITIONS AND METHODS FOR INHIBITING THE ACTIVATION OF DSRNA-DEPENDENT PROTEIN KINASE AND TUMOR GROWTH INHIBITION” (priority 2007, published 2011)
# Assays:
# [1] = test system: human pancreatic cancer cells; conditions: in vitro, literature reports; cited from earlier work
# MAC16 tumor = conditions: cited from earlier work; for tumor growth in mice bearing the MAC16 tumor: literature reports; for loss of body weight of mice bearing MAC-16 tumor: Eley et al., Biochem J. 2007
# [2] = Toxicity in mice treated with the PKR inhibitor; assay type: in vivo, mouse; conditions: inhibition of autophosphorylation of PKR in mice
# Excerpt: (§1) Both the MAC16 and MAC13 tumors were passaged in vivo in NMRI mice by transplanting fragments subcutaneously (s.c.) into the flank, as described in Bibby et al., J. Natl. Cancer Inst., 78(3):539-546, 1987. To maintain cachexia, the MAC16 tumor for passage was selected from donor animals with established weight loss, and treatment was initiated when the average weight loss was 5%. Animals were randomized into groups of six to receive solvent (DMSO (dimethylsulfoxide): PBS (phosphate-buffered saline); 1:20) or the PKR inhibitor at 1 and 5 mg/kg administered daily by s.c. injection. Animals were terminated by cervical dislocation when the body weight loss reached 20%. All animal experiments followed a strict protocol approved by the British Home Office, and the ethical guidelines that were followed meet the standards required by the UKCCR guidelines (Workman, P. et al., Br. J. Cancer, 77:1-10, 1998).
# PKR [3] = target: T1, PKR (Mus musculus, UniProt Q03963); assay: Western blot of phospho and total PKR in MAC16 tumor from treated mice; assay type: in vivo; conditions: mice bearing MAC16 tumor
# T1 construct: endogenous in cells; host or cells: MAC16 and MAC13 murine colon adenocarcinoma cells in culture
# T1 sequence (Q03963 1-515): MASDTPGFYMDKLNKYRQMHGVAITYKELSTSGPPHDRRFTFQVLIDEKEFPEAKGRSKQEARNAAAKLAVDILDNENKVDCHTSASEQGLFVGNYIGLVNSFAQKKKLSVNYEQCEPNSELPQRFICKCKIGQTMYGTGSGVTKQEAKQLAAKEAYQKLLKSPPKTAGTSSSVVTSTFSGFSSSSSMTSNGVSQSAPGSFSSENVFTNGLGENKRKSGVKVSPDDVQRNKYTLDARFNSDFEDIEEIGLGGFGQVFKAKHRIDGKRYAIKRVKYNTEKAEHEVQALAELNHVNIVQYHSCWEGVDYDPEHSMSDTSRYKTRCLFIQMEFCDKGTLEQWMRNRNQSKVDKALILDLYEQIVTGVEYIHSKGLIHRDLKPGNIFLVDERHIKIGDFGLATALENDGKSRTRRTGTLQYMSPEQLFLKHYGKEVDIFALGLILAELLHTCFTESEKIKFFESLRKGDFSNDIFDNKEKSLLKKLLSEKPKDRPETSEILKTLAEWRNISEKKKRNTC
# Excerpt: as §1
# (§2) Samples (approximately 10 mg) of tumor were homogenised in 500 μl of PhosphoSafe™ Extraction Reagent and centrifuged at 15,000 g for 15 min at 4° C. Portions of cytosolic protein (10 μg) were resolved on 10% sodium dodecyl sulphate/polyacrylamide gels (SDS/PAGE; 6% for eIF2α). […] Blots were scanned by a densitometer to quantify differences.
# 20S proteasome = assay: Western blot of 20S proteasome α-subunits in MAC16 cells; assay type: cell-based, mouse; conditions: MAC16 cells (FIG. 5C)
# Protocol: (§3) Samples (approximately 10 mg) of tumor were homogenised in 500 μl of PhosphoSafe™ Extraction Reagent and centrifuged at 15,000 g for 15 min at 4° C. Portions of cytosolic protein (10 μg) were resolved on 10% sodium dodecyl sulphate/polyacrylamide gels (SDS/PAGE; 6% for eIF2α). The resolved proteins were transferred onto 0.45 μm nitrocellulose membranes, which had been blocked with 5% Marvel in Tris-buffered saline, pH 7.5, at 4° C. overnight. Membranes were then washed for 15 min in 0.5% Tween-buffered saline, or TBS-Tween, prior to the addition of primary antibodies. The primary antibodies were used at a dilution of 1:1000, except for phospho eIF2α, which was used at 1:500. The primary antibodies were washed off the membranes for 15 min, with buffer changes every 5 min, using 0.1% TBS-Tween. The secondary antibodies were used at a dilution of 1:1000, and were washed off after 45 min. Development was by ECL, and films were developed for 3-6 min. Blots were scanned by a densitometer to quantify differences.
# NF-κB = assay: EMSA of nuclear NF-κB in MAC16 tumor from treated mice; assay type: in vivo, mouse; conditions: mice bearing MAC16 tumor, 5 mg/kg for 4 days (FIG. 7B)
# Excerpt: as §1
# DNA-binding proteins were isolated from tumor samples by hypotonic lysis, followed by high salt extraction of nuclei according to the method of Andrews and Faller (Nucleic Acids Res., 19(9):2499, 1991). EMSA was carried out using a Panomics EMSA “gel shift” kit, according to the manufacturer's instructions
# PKR [4] = target: T1, PKR; assay: Western blot of phospho and total PKR in MAC16 cells; assay type: cell-based
# Protocol: as §3
# PKR [5] = target: T1, PKR; assay: Western blot of phospho and total PKR in MAC13 cells; assay type: cell-based
# Protocol: as §3
# MAC13 cells = assay: Cell growth assay, MAC13 cells in vitro; assay type: cell-based, mouse; conditions: concentration up to 1000 nM (FIG. 2)
# Protocol: The MAC16 and MAC13 tumors were propagated in vitro in RPMI 1640 medium containing 10% FCS at 37° C., under an atmosphere of 5% CO2 in air. For cell growth assays, cells were seeded at either 0.5×10^5 cells per well (MAC13) or 1×10^5 cells per well (MAC16) in 24 well multi-well dishes and allowed to accumulate for 24 h prior to drug addition. Cell number was determined three days later, whilst the cells were in exponential growth.
# MAC16 cells = assay: Cell growth assay, MAC16 cells in vitro; assay type: cell-based, mouse
# eIF2α = assay: Western blot of phospho and total eIF2α in MAC16 tumor from treated mice; assay type: in vivo, mouse; conditions: mice bearing MAC16 tumor
# Excerpt: as §1, §2
compound,measurement,setting,value
CC(C)C[C@H](NC(=O)[C@H](Cc1ccccc1)NC(=O)c1cnccn1)B(O)O [PS-341],growth / proliferation of human pancreatic cancer cells,[1],block proliferation
Oc1ccc(C=Cc2cc(O)cc(O)c2)cc1 [resveratrol],tumor growth in mice bearing the MAC16 tumor,MAC16 tumor,inhibited
COc1cc(/C=C/C(=O)CC(=O)/C=C/c2ccc(O)c(OC)c2)ccc1O [curcumin],growth / proliferation of human pancreatic cancer cells,[1],inhibits
"O=C1Nc2ccc3ncsc3c2/C1=C/c1c[nH]cn1 [PKR inhibitor, 8-[1-(1H-imidazol-4-yl)meth-(Z)-ylidene]-6,8-dihydro-thiazol[5,4-e]indol-7-one]",toxicity in mice,[2],did not produce toxicity
same,total level of PKR in MAC16 tumor,PKR [3]; 1 or 5 mg/kg daily s.c.,without an effect
same,increased phosphorylation of PKR in MAC16 tumor,PKR [3]; 1 or 5 mg/kg daily s.c. (FIG. 4A),complete attenuation
same,expression of the 20S proteasome,20S proteasome,attenuated
same,constitutive activation of NF-κB in the tumor,NF-κB,attenuated
same,effect on total PKR in the cell,PKR [4]; MAC16 cells,In neither cell line was there an effect
same,concentration maximally effective in inhibiting PKR,PKR [4]; increasing concentrations have a reduced inhibitory effect,200 nM
same,effect on total PKR in the cell,PKR [5],In neither cell line was there an effect
same,effect on autophosphorylation of PKR,PKR [5]; low levels of autophosphorylation (FIG. 5B),no effect
same,effect on growth of the MAC13 tumor in vitro,MAC13 cells,no effect
same,concentration of maximum inhibition of cell growth,"MAC16 cells; MAC16 in vitro, cell number after three days, higher concentrations less effective (FIG. 2)",200 nM
same,effect on 5FU-induced inhibition of growth of MAC16 cells,MAC16 cells; PKR inhibitor at 100 or 200 nM combined with 5FU 1-10 μM (FIG. 8),significantly potentiated
same,effect on gemcitabine-induced inhibition of growth of MAC16 cells,MAC16 cells; PKR inhibitor at 100 or 200 nM combined with gemcitabine (FIG. 8),potentiated
same,muscle atrophy in mice bearing the MAC16 tumor,"MAC16 tumor; Eley et al, 2007",attenuated
same,tumor growth in mice bearing the MAC16 tumor,MAC16 tumor,inhibited
same,total level of eIF2α in MAC16 tumor,eIF2α; 1 or 5 mg/kg daily s.c.,without an effect
same,increased phosphorylation of eIF2α in MAC16 tumor,eIF2α; 1 or 5 mg/kg daily s.c. (FIG. 4B),complete attenuation
CC(C)[C@H](N)C(=O)O [valine],loss of body weight of mice bearing MAC-16 tumor,MAC16 tumor,significantly suppress
"Nc1ccn([C@@H]2O[C@H](CO)[C@@H](O)C2(F)F)c(=O)n1 [gemcitabine, Gemcitabine]","growth of MAC16 cells, agent alone","MAC16 cells; gemcitabine alone, 3.8-38 μM (FIG. 8)",inhibition of growth
CC(C)C[C@H](N)C(=O)O [leucine],loss of body weight of mice bearing MAC-16 tumor,MAC16 tumor,significantly suppress
"O=c1[nH]cc(F)c(=O)[nH]1 [5FU, 5-fluorouracil]","growth of MAC16 cells, agent alone",MAC16 cells; 5FU alone at concentrations between 1 and 10 μM (FIG. 8),significant inhibition
